Molecules are shown by their SMILES. pIC50: −log10 of the molar value.

Consider 40 compounds from ChEMBL document CHEMBL3091400, “The discovery of novel N-(2-pyrimidinylamino) benzamide derivatives as potent hedgehog signaling pathway inhibitors” (Bioorg Med Chem Lett, 2013).

One data set addresses Sonic hedgehog protein (Mus musculus, UniProt Q62226). The data set can be described thus: Inhibition of SHH signaling pathway in mouse NIH3T3 cells measured after 48 hrs by Gli-luciferase reporter assay. Type of data set: cell-based. (In a reporter assay the amount or activity of a reporter protein is the signal.)
Data set [1] in a line: Half life in Sprague-Dawley rat at 5 mg/kg, po. Type of data set: ADME, organism-based. Further details: dose 5 mg/kg, route oral. The note with it: in vivo.
Data set [2] can be described thus: Mean residence time in Sprague-Dawley rat at 5 mg/kg, po. The class given is ADME, organism-based. Details: dose 5 mg/kg, route oral. The note with it: in vivo.
A short description of data set [3]: Clearance in Sprague-Dawley rat at 5 mg/kg, po. Details: dose 5 mg/kg, route oral. The class given is ADME, organism-based. Conditions: in vivo.
Data set [4] deals with Rattus norvegicus. The data set can be described thus: Volume of distribution at steady state in Sprague-Dawley rat at 5 mg/kg, po. The class given is ADME, organism-based. Further details: dose 5 mg/kg, route oral. The note with it: in vivo.
Data set [5] in a line: AUC in Sprague-Dawley rat at 5 mg/kg, po. The class given is ADME, organism-based. The note with it: plasma. Details: dose 5 mg/kg, route oral.
Data set [6] is described as follows: Cmax in Sprague-Dawley rat at 5 mg/kg, po. Type of data set: ADME, organism-based. Further details: dose 5 mg/kg, route oral. Conditions: in vivo.
Data set [7] is described as follows: Oral bioavailability in Sprague-Dawley rat at 5 mg/kg. The class given is ADME, organism-based. The note with it: in vivo.
Data set [8] in a line: Half life in Sprague-Dawley rat at 1 mg/kg, iv. The class given is ADME, organism-based. Details: dose 1 mg/kg, route intravenous. Conditions: in vivo.
Data set [9] has as its system Rattus norvegicus. The experiment in a line: Mean residence time in Sprague-Dawley rat at 1 mg/kg, iv. Type of data set: ADME, organism-based. Details: dose 1 mg/kg, route intravenous. The note with it: in vivo.
The subject of data set [10] is Rattus norvegicus. The data set can be described thus: Clearance in Sprague-Dawley rat at 1 mg/kg, iv. The note with it: in vivo. The class given is ADME, organism-based. Details: dose 1 mg/kg, route intravenous.
Data set [11] concerns Rattus norvegicus. The data set can be described thus: Volume of distribution at steady state in Sprague-Dawley rat at 1 mg/kg, iv. Type of data set: ADME, organism-based. Further details: dose 1 mg/kg, route intravenous. The note with it: in vivo.
The nature of data set [12]: AUC in Sprague-Dawley rat at 1 mg/kg, iv. Type of data set: ADME, organism-based. Further details: dose 1 mg/kg, route intravenous. Conditions: plasma.
Data set [13] can be described thus: Cmax in Sprague-Dawley rat at 1 mg/kg, iv. Type of data set: ADME, organism-based. Further details: dose 1 mg/kg, route intravenous. Conditions: in vivo.

Sequence of Sonic hedgehog protein (Q62226 25-198 limits assumed): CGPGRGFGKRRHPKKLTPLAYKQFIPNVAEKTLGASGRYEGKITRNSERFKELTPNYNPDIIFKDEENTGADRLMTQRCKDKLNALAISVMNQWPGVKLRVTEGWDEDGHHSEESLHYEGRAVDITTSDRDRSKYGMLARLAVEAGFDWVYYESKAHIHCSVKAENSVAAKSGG

Turning to `CCc1cnc(Nc2ccc(C(=O)Nc3c(C)cccc3C)cc2)nc1-c1ccc(OC(F)(F)F)cc1`, the pIC50 – broadly, −log10 of the IC50, conventionally taken in molar units – against Sonic hedgehog protein was 8.28. As for `Cc1cnc(Nc2ccc3[nH]ncc3c2)nc1-c1ccc(OC(F)(F)F)cc1`, the pIC50 on Sonic hedgehog protein was 6.90. `Cc1cnc(Nc2ccc(C(=O)Nc3ccccc3CN3CCN(C)CC3)cc2)nc1-c1ccc(OC(F)(F)F)cc1`: on Sonic hedgehog protein, the pIC50 is 6.45.

Turning to `Cc1cnc(Nc2ccc(C(=O)Nc3c(C)cccc3C)cc2)nc1-c1ccc(OC(F)(F)F)cc1`, the half-life – broadly, the time needed for the level to fall by half in the phase considered – in [1] is 7 h; in [8] it was 10.3 h. For the same compound, the mean residence time (MRT) (in general, a mean duration of stay, worked out from the concentration-time curve) in [2] is 5.1 h; in the data set on Rattus norvegicus [9] it was 4 h. Moreover, the CL/F (commonly the apparent clearance, not corrected for the fraction that reaches the circulation) in [3] is 2.8 L/h/kg. The results for the Vdss in the data set on Rattus norvegicus [4] and with Rattus norvegicus [11] were 27.738 L/kg and 14.898 L/kg, respectively. Moreover, the AUC (in general, the area under the concentration-time curve, a measure of exposure) stood at 1.71 µg·h/mL in [5] and 0.915 µg·h/mL in data set [12]. Further, the values for the peak concentration (Cmax) in [6] and in [13] were 0.342 µg/mL and 0.764 µg/mL, respectively. Further, the bioavailability (in general, dose-corrected exposure relative to a reference, in per cent) in [7] came out at 36%. Besides, the CL in the data set with Rattus norvegicus [10] came out at 1.004 L/h/kg. This compound had a pIC50 on Sonic hedgehog protein of 8.89.

With `Cc1cnc(Nc2ccc(C(=O)Nc3c(C)cccc3C)cc2)nc1-c1ccncc1`, the negative-log IC50 (pIC50) against Sonic hedgehog protein is 9.27. Same read-out and setting: as for `Cc1cccc(C)c1NC(=O)c1ccc(Nc2nc(C)c(C)c(-c3ccc(OC(F)(F)F)cc3)n2)cc1`, the figure is 8.80. Still for that read-out and setting: as for `Cc1cnc(Nc2ccc(C(=O)Nc3c(C)cccc3C)cc2)nc1Cc1ccccc1`, the figure is 7.46; as for `CS(=O)(=O)c1ccc(C(=O)Nc2ccc(Cl)c(-c3ccccn3)c2)c(Cl)c1` [VISMODEGIB], 8.14. Still for that read-out and setting: as for `Cc1ccc(-c2nc(Nc3ccc(C(=O)Nc4c(C)cccc4C)cc3)ncc2C)cc1`, the figure is less than 6.30. `Cc1ccc(CN(C)Cc2ccccc2)cc1NC(=O)c1ccc(Nc2ncc(C)c(-c3ccc(OC(F)(F)F)cc3)n2)cc1`: the pIC50 on Sonic hedgehog protein is 8.96. `Cc1cnc(Nc2ccc(C(=O)Nc3c(C)cccc3C)cc2)nc1C` had a pIC50 against Sonic hedgehog protein of 6.82. As to `Cc1cnc(Nc2ccc(C(=O)Nc3c(C)cccc3C)cc2)nc1-c1ccc(C#N)cc1`, the pIC50 on Sonic hedgehog protein was 8.55. Still for that read-out and setting: as for `Cc1ccc(CN(C)Cc2ccccc2)cc1NC(=O)c1ccc(Nc2ncc(C)c(C)n2)cc1`, the figure is 7.00; as for `Cc1cnc(Nc2ccc(C(=O)Nc3c(C)cccc3C)cc2)nc1-c1ccc(OC(F)(F)F)c(F)c1`, 6.80; as for `Cc1cccc(C)c1NC(=O)c1ccc(Nc2nccc(-c3ccc(OC(F)(F)F)cc3)n2)cc1`, 8.92. The same measure, in the same setting: as for `Cc1cnc(Nc2ccc(C(=O)Nc3c(C)cccc3C)cc2)nc1C1CC1`, the figure is 7.48; as for `Cc1cnc(Nc2ccc(C(=O)Nc3c(C)cccc3C)cc2)nc1-c1ccccc1OC(F)(F)F`, less than 6.30; as for `Cc1cccc(C)c1NC(=O)c1ccc(Nc2cc(-c3ccc(OC(F)(F)F)cc3)ccn2)cc1`, 8.80. Still for that read-out and setting: for `Cc1c(C(=O)Nc2ccc(N3C[C@@H](C)O[C@@H](C)C3)nc2)cccc1-c1ccc(OC(F)(F)F)cc1` [SONIDEGIB] the value was 8.26; for `Cc1cnc(Nc2ccc(C(=O)Nc3c(C)cccc3C)cc2)nc1-c1cnn(C)c1`, 7.97. On to `Cc1cccc(C)c1NC(=O)c1ccc(Nc2ncc(F)c(-c3ccc(OC(F)(F)F)cc3)n2)cc1`, for which the pIC50 on Sonic hedgehog protein is 8.80.

Consider `Cc1cccc(C)c1NC(=O)c1ccc(Nc2cccc(-c3ccc(OC(F)(F)F)cc3)n2)cc1`, for which, on Sonic hedgehog protein, the pIC50 is 7.63. Still for that read-out and setting: as for `Cc1cnc(Nc2ccc(C(=O)Nc3c(C)cccc3C)cc2)nc1-c1ccc(N2CCOCC2)cc1`, the figure is 7.69. On the same count and under the same terms, for `Cc1cnc(Nc2ccc(C(=O)NC(C)C)cc2)nc1-c1ccc(OC(F)(F)F)cc1` the value was 7.14; for `Cc1cnc(Nc2ccc(C(=O)Nc3c(C)cccc3C)cc2)nc1-c1ccc(F)cc1`, 8.66. Still for that read-out and setting: as for `Cc1cnc(Nc2ccc(N3C[C@@H](C)O[C@@H](C)C3)nc2)nc1-c1ccc(OC(F)(F)F)cc1`, the figure is less than 6.30; as for `Cc1cnc(Nc2ccc(C(=O)Nc3ccc(CN4CCN(C)CC4)cc3)cc2)nc1-c1ccc(OC(F)(F)F)cc1`, 6.93. As for `Cc1cnc(Nc2ccc(C(=O)Nc3c(C)cccc3C)cc2)nc1-c1cccnc1`, the pIC50 at Sonic hedgehog protein is less than 6.30. Still for that read-out and setting: as for `Cc1cnc(N(C)c2ccc(C(=O)Nc3c(C)cccc3C)cc2)nc1-c1ccc(OC(F)(F)F)cc1`, the figure is 8.57. As to `Cc1cnc(Nc2ccc(C(=O)Nc3c(C)cccc3C)cc2)nc1-c1cccc(OC(F)(F)F)c1`, the negative logarithm of the IC50 (pIC50) against Sonic hedgehog protein is 8.92. `CCCc1cc(-c2ccc(OC(F)(F)F)cc2)nc(Nc2ccc(C(=O)Nc3c(C)cccc3C)cc2)n1`: at Sonic hedgehog protein, the pIC50 was 9.10. The pIC50 values of the last two compounds are within 0.2 log units of each other. On the same count and under the same terms, as for `Cc1ccccc1C(=O)Nc1ccc(Nc2ncc(C)c(-c3ccc(OC(F)(F)F)cc3)n2)cc1`, the figure is 7.38. At Sonic hedgehog protein, `Cc1cccc(C)c1NC(=O)c1ccc(Nc2ncc(C(F)(F)F)c(-c3ccc(OC(F)(F)F)cc3)n2)cc1` showed a negative-log IC50 (pIC50) of 9.28. The same measure, in the same setting: as for `Cc1cnc(Nc2ccc(C(=O)NC3CCCCC3)cc2)nc1-c1ccc(OC(F)(F)F)cc1`, the figure is 8.66; as for `Cc1cccc(C)c1NC(=O)c1ccc(Nc2ncc(C3CC3)c(-c3ccc(OC(F)(F)F)cc3)n2)cc1`, 8.89; as for `Cc1ccccc1NC(=O)c1ccc(Nc2ncc(C)c(-c3ccc(OC(F)(F)F)cc3)n2)cc1`, 9.00.

With `Cc1cc(-c2ccc(OC(F)(F)F)cc2)nc(Nc2ccc(C(=O)Nc3c(C)cccc3C)cc2)n1`, the pIC50 against Sonic hedgehog protein is 8.85. On the same count and under the same terms, as for `Cc1cnc(Nc2ccc(C(=O)Nc3c(C)cccc3C)cc2)nc1-c1ccccc1`, the figure is 8.89; as for `Cc1ccc(-c2cnn(C)c2)cc1NC(=O)c1ccc(Nc2ncc(C)c(-c3ccc(OC(F)(F)F)cc3)n2)cc1`, 8.92; as for `Cc1cnc(Nc2ccc(C(=O)Nc3c(C)cccc3C)cc2)nc1-c1ccoc1`, 7.80.
